# Read-outs that look alike come from different tables or passages of the source.
# Key:
# [1] = target: HCV NS3/4A protease genotype 1b (Hepatitis C virus genotype 1b, UniProt P26663); test: HCV NS3/4A protease time-resolved fluorescence (TRF) assay, Ki against genotype 1b; assay type: biochemical
# Procedure, shortened: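 NS3/4A enzyme was preincubated 30 min with inhibitor in 50 mM HEPES pH 7.5, 150 mM NaCl, 15% glycerol, 0.15% Triton X-100, 10 mM DTT, 0.1% PEG 8000; 25 nM europium TRF peptide substrate added, 2.5 h at room temperature. Enzyme: 0.2 nM (1b), 0.4 nM (A156T), 0.025 nM (3a). Ki from IC50 via Cheng-Prusoff.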
# [2] = tested on: HCV genotype 1b replicon; test: HCV replicon assay, genotype 1b replicon EC50; assay type: cell-based, Hepatitis C virus; conditions: Hepatitis C virus, read-out: EC50 [gt-1b]
# Procedure, shortened: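 Readout was replicon RNA copy number, by 32P-probe protection or TaqMan normalized to cellular cyclophilin A RNA, or luciferase activity for luciferase:Neo^r fusion lines. Cells were exposed to serially diluted compound for 24-48 hours without G418, then washed and lysed. EC50 derived from four-parameter fit relative to DMSO.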
# [3] = IC50 [gt-1b] (nM), NS3/4A genotype 1b, enzyme 0.2 nM, K+ salt
# [4] = IC50 [gt-1b] (nM), NS3/4A genotype 1b, enzyme 0.2 nM
# [5] = IC50 [gt-1b], NS3/4A protease TRF assay, genotype 1b enzyme 0.2 nM
Compound,"IC50 [1, 3] [nM]","EC50 ([2]; genotype 1b replicon, K+ salt) [nM]",further results
"COc1ccc2nc(C)c3c(c2c1)CC[C@]1(C[C@H]2C(=O)N[C@]4(C(=O)NS(=O)(=O)C5(C)CC5)C[C@H]4/C=C\CCCCC[C@H](NC(=O)OCC4(C(F)(F)F)CC4)C(=O)N2C1)O3 [Example 349, [1-(trifluoromethyl)cyclopropyl]methyl [(2R,6S,12Z,13aS,14aR,16aS)-9′-methoxy-5′-methyl-14a-{[(1-methylcyclopropyl)sulfonyl]carbamoyl}-5,16-dioxo-1,1′,2′,5,6,7,8,9,10,11,13a,14,14a,15,16,16a-hexadecahydrospiro[cyclopropa[e]pyrrolo[1,2-a][1,4]diazacyclopentadecine-2,3′-pyrano[2,3-c]quinolin]-6-yl]carbamate]",0.012,4.55,
"Cc1ccnc(N[C@H]2CCCCC/C=C\[C@@H]3C[C@@]3(C(=O)NS(=O)(=O)C3(C)CC3)NC(=O)[C@@H]3C[C@]4(CCc5c(c(C)nc6ccccc56)O4)CN3C2=O)c1 [Example 350, (2R,6S,12Z,13aS,14aR,16aS)-5′-methyl-N-[(1-methylcyclopropyl)sulfonyl]-6-[(4-methylpyridin-2-yl)amino]-5,16-dioxo-1,1′,2′,6,7,8,9,10,11,13a,14,15,16,16a-tetradecahydrospiro[cyclopropa[e]pyrrolo[1,2-a][1,4]diazacyclopentadecine-2,3′-pyrano[2,3-c]quinoline]-14a(5H)-carboxamide]",,,"IC50 [1, 4]: 0.035 nM; EC50 ([2]; genotype 1b replicon): 2.84 nM"
"COc1ccc2nc(C(F)(F)F)c3c(c2c1)CC[C@]1(C[C@H]2C(=O)N[C@]4(C(=O)NS(=O)(=O)C5(C)CC5)C[C@H]4/C=C\CCCCC[C@H](NC(=O)O[C@@H](C)C(C)C)C(=O)N2C1)O3 [Example 351, (2S)-3-methylbutan-2-yl [(2R,6S,12Z,13aS,14aR,16aS)-9′-methoxy-14a-{[(1-methylcyclopropyl)sulfonyl]carbamoyl}-5,16-dioxo-5′-(trifluoromethyl)-1,1′,2′,5,6,7,8,9,10,11,13a,14,14a,15,16,16a-hexadecahydrospiro[cyclopropa[e]pyrrolo[1,2-a][1,4]diazacyclopentadecine-2,3′-pyrano[2,3-c]quinolin]-6-yl]carbamate]",0.029,2.19,
"COc1ccc2nc(C(C)C)c3c(c2c1)[C@H](F)C[C@]1(C[C@H]2C(=O)N[C@]4(C(=O)NS(=O)(=O)C5(C)CC5)C[C@H]4/C=C\CCCCC[C@H](NC(=O)OC(C)(C)C(F)(F)F)C(=O)N2C1)O3 [Example 352, 1,1,1-trifluoro-2-methylpropan-2-yl [(1′R,2S,6S,12Z,13aS,14aR,16aS)-1′-fluoro-9′-methoxy-14a-{[(1-methylcyclopropyl)sulfonyl]carbamoyl}-5,16-dioxo-5′-(propan-2-yl)-1,1′,2′,5,6,7,8,9,10,11,13a,14,14a,15,16,16a-hexadecahydrospiro[cyclopropa[e]pyrrolo[1,2-a][1,4]diazacyclopentadecine-2,3′-pyrano[2,3-c]quinolin]-6-yl]carbamate]",0.042,1.45,
"Cc1nc2ccccc2c2c1O[C@]1(CC2)C[C@H]2C(=O)N[C@]3(C(=O)NS(=O)(=O)C4(C)CC4)C[C@H]3/C=C\CCCCC[C@H](Nc3ccccn3)C(=O)N2C1 [Example 353, (2R,6S,12Z,13aS,14aR,16aS)-5′-methyl-N-[(1-methylcyclopropyl)sulfonyl]-5,16-dioxo-6-(pyridin-2-ylamino)-1,1′,2′,6,7,8,9,10,11,13a,14,15,16,16a-tetradecahydrospiro[cyclopropa[e]pyrrolo[1,2-a][1,4]diazacyclopentadecine-2,3′-pyrano[2,3-c]quinoline]-14a(5R)-carboxamide]",,,"IC50 [1, 4]: 0.111 nM; EC50 ([2]; genotype 1b replicon): 39.5 nM"
"COc1ccc2nc(C)c3c(c2c1)[C@@H](F)C[C@]1(C[C@H]2C(=O)N[C@]4(C(=O)NS(=O)(=O)C5(C)CC5)C[C@H]4/C=C\CCCCC[C@H](NC(=O)OC(C)(C)C)C(=O)N2C1)O3 [Example 354, tert-butyl [(1′S,2S,6S,12Z,13aS,14aR,16aS)-1′-fluoro-9′-methoxy-5′-methyl-14a-{[(1-methylcyclopropyl)sulfonyl]carbamoyl}-5,16-dioxo-1,1′,2′,5,6,7,8,9,10,11,13a,14,14a,15,16,16a-hexadecahydrospiro[cyclopropa[e]pyrrolo[1,2-a][1,4]diazacyclopentadecine-2,3′-pyrano[2,3-c]quinolin]-6-yl]carbamate]",,,"IC50 [1, 4]: 0.169 nM; EC50 ([2]; genotype 1b replicon): 103 nM"
"COc1ccc2nc(C)c3c(c2c1)[C@H](F)C[C@]1(C[C@H]2C(=O)N[C@]4(C(=O)NS(=O)(=O)C5(C)CC5)C[C@H]4/C=C\CCCCC[C@H](NC(=O)OC(C)(C)C(F)(F)F)C(=O)N2C1)O3 [Example 355, 1,1,1-trifluoro-2-methylpropan-2-yl [(1′R,2S,6S,12Z,13aS,14aR,16aS)-1′-fluoro-9′-methoxy-5′-methyl-14a-{[(1-methylcyclopropyl)sulfonyl]carbamoyl}-5,16-dioxo-1,1′,2′,5,6,7,8,9,10,11,13a,14,14a,15,16,16a-hexadecahydrospiro[cyclopropa[e]pyrrolo[1,2-a][1,4]diazacyclopentadecine-2,3′-pyrano[2,3-c]quinolin]-6-yl]carbamate]",0.02,3.77,
"COc1ccc2nc(C)c3c(c2c1)[C@H](F)C[C@]1(C[C@H]2C(=O)N[C@]4(C(=O)NS(=O)(=O)C5(C)CC5)C[C@H]4/C=C\CCCCC[C@H](NC(=O)O[C@H](C)C(C)C)C(=O)N2C1)O3 [Example 356, (2R)-3-methylbutan-2-yl [(1′R,2S,6S,12Z,13aS,14aR,16aS)-1′-fluoro-9′-methoxy-5′-methyl-14a-{[(1-methylcyclopropyl)sulfonyl]carbamoyl}-5,16-dioxo-1,1′,2′,5,6,7,8,9,10,11,13a,14,14a,15,16,16a-hexadecahydrospiro[cyclopropa[e]pyrrolo[1,2-a][1,4]diazacyclopentadecine-2,3′-pyrano[2,3-c]quinolin]-6-yl]carbamate]",0.012,3.73,
"COc1ccc2nc(C)c3c(c2c1)[C@H](F)C[C@]1(C[C@H]2C(=O)N[C@]4(C(=O)NS(=O)(=O)C5(C)CC5)C[C@H]4/C=C\CCCCC[C@H](NC(=O)O[C@@H](C)C(C)C)C(=O)N2C1)O3 [Example 357, (2S)-3-methylbutan-2-yl [(1′R,2S,6S,12Z,13aS,14aR,16aS)-1′-fluoro-9′-methoxy-5′-methyl-14a-{[(1-methylcyclopropyl)sulfonyl]carbamoyl}-5,16-dioxo-1,1′,2′,5,6,7,8,9,10,11,13a,14,14a,15,16,16a-hexadecahydrospiro[cyclopropa[e]pyrrolo[1,2-a][1,4]diazacyclopentadecine-2,3′-pyrano[2,3-c]quinolin]-6-yl]carbamate]",0.01,2.91,
"COc1ccc2nc(C)c3c(c2c1)[C@H](F)C[C@]1(C[C@H]2C(=O)N[C@]4(C(=O)NS(=O)(=O)C5(C)CC5)C[C@H]4/C=C\CCCCC[C@H](NC(=O)O[C@@H](C)C(C)C)C(=O)N2C1)O3 [Example 358, (2S)-3-methylbutan-2-yl [(1′R,2S,6S,12Z,13aS,14aR,16aS)-1′-fluoro-9′-methoxy-5′-methyl-14a-{[(1-methylcyclopropyl)sulfonyl]carbamoyl}-5,16-dioxo-1,1′,2′,5,6,7,8,9,10,11,13a,14,14a,15,16,16a-hexadecahydrospiro[cyclopropa[e]pyrrolo[1,2-a][1,4]diazacyclopentadecine-2,3′-pyrano[2,3-c]quinolin]-6-yl]carbamate]",,,"IC50 ([1]; IC50 [gt-1b], NS3/4A protease TRF assay, genotype 1b enzyme 0.2 nM, K+ salt): 0.172 nM; EC50 ([2]; HCV replicon, genotype 1b, K+ salt): 42.8 nM"
"Cc1nc2ccccc2c2c1O[C@]1(CC2)C[C@H]2C(=O)N[C@]3(C(=O)NS(=O)(=O)C4(C)CC4)C[C@H]3/C=C\CCCCC[C@H](Nc3ncccn3)C(=O)N2C1 [Example 359, (2R,6S,12Z,13aS,14aR,16aS)-5′-methyl-N-[(1-methylcyclopropyl)sulfonyl]-5,16-dioxo-6-(pyrimidin-2-ylamino)-1,1′,2′,6,7,8,9,10,11,13a,14,15,16,16a-tetradecahydrospiro[cyclopropa[e]pyrrolo[1,2-a][1,4]diazacyclopentadecine-2,3′-pyrano[2,3-c]quinoline]-14a(5H)-carboxamide]",,,"IC50 [1, 5]: 0.4 nM; EC50 ([2]; HCV replicon, genotype 1b): 205 nM"
"Cc1nc2ccccc2c2c1O[C@]1(CC2)C[C@H]2C(=O)N[C@]3(C(=O)NS(=O)(=O)C4(C)CC4)C[C@H]3/C=C\CCCCC[C@H](Nc3nccs3)C(=O)N2C1 [Example 360, (2R,6S,12Z,13aS,14aR,16aS)-5′-methyl-N-[(1-methylcyclopropyl)sulfonyl]-5,16-dioxo-6-(1,3-thiazol-2-ylamino)-1,1′,2′,6,7,8,9,10,11,13a,14,15,16,16a-tetradecahydrospiro[cyclopropa[e]pyrrolo[1,2-a][1,4]diazacyclopentadecine-2,3′-pyrano[2,3-c]quinoline]-14a(5H)-carboxamide]",,,"IC50 [1, 5]: 0.143 nM; EC50 ([2]; HCV replicon, genotype 1b): 140 nM"

# — patent publication US8987195B2 (priority 2012, dated 2015)
